In brackets after ≈: the same amount, converted by molar mass.
Columns and labels:
[1] = tested on: Staphylococcus aureus; assay: Antibacterial activity against Staphylococcus aureus ATCC 29213 after 16 to 20 hrs by broth microdilution method; assay type: functional
[2] = tested on: Pseudomonas aeruginosa; assay: Antibacterial activity against Pseudomonas aeruginosa after 16 to 20 hrs by broth microdilution method; assay type: functional
[3] = tested on: Klebsiella pneumoniae; assay: Antibacterial activity against Klebsiella pneumoniae after 16 to 20 hrs by broth microdilution method; assay type: functional
[4] = tested on: Escherichia coli; assay: Antibacterial activity against Escherichia coli after 16 to 20 hrs by broth microdilution method; assay type: functional
[5] = tested on: Klebsiella aerogenes; assay: Antibacterial activity against Enterobacter aerogenes after 16 to 20 hrs by broth microdilution method; assay type: functional
[6] = tested on: Acinetobacter baumannii; assay: Antibacterial activity against Acinetobacter baumannii after 16 to 20 hrs by broth microdilution method; assay type: functional
[7] = biological target: T1, UDP-3-O-acyl-N-acetylglucosamine deacetylase (Pseudomonas aeruginosa (strain ATCC 15692 / PAO1 / 1C / PRS 101 / LMG12228), UniProt P47205); assay: Inhibition of Pseudomonas aeruginosa LpxC using UDP-3-O-(R-hydroxydecanoyl)-N-acetylglucosamine incubated for 30 mins prior to substrate addition measured after 60 mins by mass spectrophotometry
T1 sequence (P47205 whole entry): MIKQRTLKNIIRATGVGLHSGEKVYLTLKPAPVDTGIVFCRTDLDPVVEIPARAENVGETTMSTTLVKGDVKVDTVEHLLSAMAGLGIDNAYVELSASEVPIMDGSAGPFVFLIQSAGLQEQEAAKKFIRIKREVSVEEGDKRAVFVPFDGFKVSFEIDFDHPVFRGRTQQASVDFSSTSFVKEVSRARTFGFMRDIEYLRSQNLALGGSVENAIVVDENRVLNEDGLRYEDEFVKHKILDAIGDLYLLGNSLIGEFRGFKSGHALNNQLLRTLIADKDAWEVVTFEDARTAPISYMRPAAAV

[8] = tested on: Pseudomonas aeruginosa; assay: Antibacterial activity against Pseudomonas aeruginosa PAO1 after 16 to 20 hrs by broth microdilution method; assay type: functional
[9] = tested on: Citrobacter freundii; assay: Antibacterial activity against Citrobacter freundii after 16 to 20 hrs by broth microdilution method; assay type: functional
[10] = tested on: Pseudomonas aeruginosa; assay: Antibacterial activity against Pseudomonas aeruginosa clinical isolates after 16 to 20 hrs by broth microdilution method; assay type: functional
[11] = Clearance in rat at 10 mg/kg, iv; assay type: ADME, organism-based; parameters: dose 10 mg/kg, route intravenous; settings: in vivo
[12] = Volume of distribution at steady state in rat at 10 mg/kg, iv; assay type: ADME, organism-based; parameters: dose 10 mg/kg, route intravenous; settings: in vivo, read-out: Vdss
[13] = AUC in rat at 10 mg/kg, iv; assay type: ADME, organism-based; parameters: dose 10 mg/kg, route intravenous; settings: plasma
[14] = Half life in rat at 10 mg/kg, iv; assay type: ADME, organism-based; parameters: dose 10 mg/kg, route intravenous; settings: in vivo

Row | SMILES | MIC [1] | IC50 [7] | MIC [8] | also measured
1 | O=C(O)c1cn(C2CC2)c2cc(N3CCNCC3)c(F)cc2c1=O [CIPROFLOXACIN] | 0.25 µg/mL (≈ 0.754 µM) |  |  | MIC90 [2]: 64 µg/mL (≈ 193 µM); MIC90 [3]: 64 µg/mL (≈ 193 µM); MIC90 [4]: > 64 µg/mL; MIC90 [5]: 1 µg/mL (≈ 3.02 µM); MIC90 [6]: 64 µg/mL (≈ 193 µM)
2 | C[C@@](CCc1ccc(-c2ccc(C(=O)CO)cc2)cc1)(C(=O)NO)S(C)(=O)=O | > 64 µg/mL | 0.00185 µM | 0.5 µg/mL (≈ 1.23 µM) | MIC90 [2]: 1 µg/mL (≈ 2.47 µM); MIC90 [3]: 8 µg/mL (≈ 19.7 µM); MIC90 [4]: 2 µg/mL (≈ 4.93 µM); MIC90 [5]: 4 µg/mL (≈ 9.87 µM); MIC90 [9]: 4 µg/mL (≈ 9.87 µM); MIC90 [6]: > 64 µg/mL
3 | C[C@@](CCc1ccc(-c2ccc(F)cc2)cc1)(C(=O)NO)S(C)(=O)=O | > 64 µg/mL | 0.00174 µM | 0.25 µg/mL (≈ 0.684 µM) | MIC90 [2]: 1 µg/mL (≈ 2.74 µM); MIC90 [3]: 8 µg/mL (≈ 21.9 µM); MIC90 [4]: 1 µg/mL (≈ 2.74 µM); MIC90 [5]: 2 µg/mL (≈ 5.47 µM); MIC90 [9]: 4 µg/mL (≈ 10.9 µM); MIC90 [6]: 32 µg/mL (≈ 87.6 µM)
4 | C[C@@](CCc1ccc(-c2cccc(C(N)=O)c2)cc1)(C(=O)NO)S(C)(=O)=O | > 64 µg/mL | 0.0278 µM | 32 µg/mL (≈ 82 µM) | 
5 | CC(CCc1ccc(OC2CCCC2)cc1)(C(=O)NO)S(C)(=O)=O (racemic) | 64 µg/mL (≈ 180 µM) | 0.0101 µM | 4 µg/mL (≈ 11.3 µM) | 
6 | CC(CCc1ccc(OCc2ccccc2)cc1)(C(=O)NO)S(C)(=O)=O (racemic) | > 64 µg/mL | 0.00516 µM | 2 µg/mL (≈ 5.3 µM) | 
7 | CC(CSc1ccc(-c2ccccc2)cc1)(C(=O)NO)S(C)(=O)=O (racemic) | 64 µg/mL (≈ 175 µM) | 0.00904 µM | 2 µg/mL (≈ 5.47 µM) | 
8 | C[C@@](CCc1ccc(-c2ccc(CN)cc2)cc1)(C(=O)NO)S(C)(=O)=O | > 64 µg/mL | 0.0129 µM | 1 µg/mL (≈ 2.66 µM) | 
9 | CC(C)c1cccc(-c2ccc(CC[C@](C)(C(=O)NO)S(C)(=O)=O)cc2)c1 | 32 µg/mL (≈ 82.2 µM) | 0.00678 µM | 8 µg/mL (≈ 20.5 µM) | 
10 | CC(C)(O/N=C(\C(=O)N[C@@H]1C(=O)N2C(C(=O)[O-])=C(C[n+]3ccccc3)CS[C@H]12)c1csc(N)n1)C(=O)O [CEFTAZIDIME] |  |  |  | MIC50 [10]: 16 µg/mL (≈ 29.3 µM); MIC90 [10]: > 64 µg/mL
11 | CC(CCc1ccc(OCc2ccncc2)cc1)(C(=O)NO)S(C)(=O)=O (racemic) | > 64 µg/mL | 0.0216 µM | 4 µg/mL (≈ 10.6 µM) | 
12 | C[C@H]1[C@H](NC(=O)/C(=N\OC(C)(C)C(=O)O)c2csc(N)n2)C(=O)N1S(=O)(=O)O [AZTREONAM] |  |  |  | MIC90 [2]: 64 µg/mL (≈ 147 µM); MIC90 [3]: > 64 µg/mL; MIC90 [4]: > 64 µg/mL; MIC90 [5]: 32 µg/mL (≈ 73.5 µM); MIC90 [9]: > 64 µg/mL; MIC90 [6]: 32 µg/mL (≈ 73.5 µM)
13 | C[C@@](CCc1ccc(-c2cccc(-n3cccn3)c2)cc1)(C(=O)NO)S(C)(=O)=O | 64 µg/mL (≈ 155 µM) | 0.0221 µM | 32 µg/mL (≈ 77.4 µM) | 
14 | C[C@@](CCc1ccc(-c2ccc(C(N)=O)cc2)cc1)(C(=O)NO)S(C)(=O)=O | > 64 µg/mL | < 0.00247 µM | 2 µg/mL (≈ 5.12 µM) | 
15 | CC(CCc1ccc(OCc2cc[n+]([O-])cc2)cc1)(C(=O)NO)S(C)(=O)=O (racemic) | > 64 µg/mL | 0.0927 µM | > 64 µg/mL | 
16 | C[C@@](CCc1ccc(-c2ccc(OCCCN3CCOCC3)cc2)cc1)(C(=O)NO)S(C)(=O)=O | > 64 µg/mL |  | 2 µg/mL (≈ 4.08 µM) | MIC90 [2]: 4 µg/mL (≈ 8.15 µM); MIC90 [3]: 4 µg/mL (≈ 8.15 µM); MIC90 [4]: 0.5 µg/mL (≈ 1.02 µM); MIC90 [5]: 1 µg/mL (≈ 2.04 µM); MIC90 [9]: 1 µg/mL (≈ 2.04 µM); MIC90 [6]: > 64 µg/mL
17 | C[C@@](CCc1ccc(-c2cccc(Cl)c2)cc1)(C(=O)NO)S(C)(=O)=O | 32 µg/mL (≈ 83.8 µM) | 0.00354 µM | 0.5 µg/mL (≈ 1.31 µM) | 
18 | CC(COc1ccc(-c2ccccc2)cc1)(C(=O)NO)S(C)(=O)=O (racemic) | > 64 µg/mL | 0.0314 µM | 4 µg/mL (≈ 11.4 µM) | 
19 | C[C@@](CCc1ccc(-c2ccccc2C(N)=O)cc1)(C(=O)NO)S(C)(=O)=O | > 64 µg/mL | > 0.1 µM | > 64 µg/mL | 
20 | C[C@@](CCc1ccc(-c2ccc(O)cc2)cc1)(C(=O)O)S(C)(=O)=O | > 64 µg/mL | > 0.0925 µM | > 64 µg/mL | clearance [11]: 15 mL/min/kg; Vd [12]: 0.4 L/kg; AUC [13]: 10900 ng·h/mL; half-life [14]: 42 min
21 | COc1ccccc1-c1ccc(CC[C@](C)(C(=O)NO)S(C)(=O)=O)cc1 | > 64 µg/mL | 0.00704 µM | 1 µg/mL (≈ 2.65 µM) | 
22 | C[C@@](CCc1ccccc1)(C(=O)NO)S(C)(=O)=O | > 64 µg/mL | > 0.1 µM | 16 µg/mL (≈ 59 µM) | 
